Where two headings read alike, the source gives them in different places.
What was measured:
[1] = system: intra-ocular pressure (IOP); assay: IOP lowering after topical administration in normotensive rabbits; type: in vivo, New Zealand White albino rabbits
Protocol: New Zealand White albino rabbits weighing 2-2.5 kg were acclimatized in our animal facility for at least a week prior to IOP measurements. Drug, saline and blank-vehicle groups (n=8-12 animals per group) were included. In most experiments, 50 μl drops were applied at 09:00 and measurements were taken 1 hour, 3, 5, and 7 hours later. Baseline IOP was individualized for each animal and time point prior to drug testing. IOP was measured by a Digilab Pneumatonometer, Model 30R. ΔIOP was calculated by subtracting the baseline IOP from IOP value measured after drug application at a corresponding time point. Maximal ΔIOP and area under the ΔIOP×hours curve (AUC) were calculated and averaged for each group. Data of IOP, AUC, blood pressure and toxicity were analyzed by the Wilcoxon-Rank test.

[2] = 1st Phase I study, rising single i.v. dose, healthy male volunteers; type: in vivo, human; details: for AUC∞/Dose: normalized for dose (mg/kg); for half-life / MRT / clearance / AUC / AUC(0-inf) / Cmax / Vd: male, human, plasma, iv; for AUC / AUC(0-inf) / Cmax: up to 24 hr; for Vd: read-out: Vss
Protocol: Pharmacokinetic parameters were estimated by a non-compartmental method using WinNonlin Professional version 3.2 (Pharsight Corp., Mountain View, Calif.). The maximum plasma concentration (Cmax), when the drug is administered by infusion, is the concentration at the end of infusion. The Cmax following intravenous bolus administration is the value estimated by the software to be the concentration at t=0. The terminal slope (X) was estimated by linear regression through the last time points and used to calculate the terminal half-life (t1/2) from the following equation: t1/2=0.693/λ The area under the curve from time of dosing through the last time point (AUCz) was calculated by the linear trapezoid method. The AUC extrapolated to infinity (AUC∞) was calculated from the following equation: AUC∞=AUCz+Cz/λ where Cz is the concentration at the last time point predicted by the linear regression. AUC∞ was normalized for dose (mg/kg) and presented as AUC∞/Dose. Mean residence time (MRT), when the drug is administered by infusion is described by the following equation: MRT=(AUMC/AUC)−(TI)/2 Mean residence time after i.v. bolus administration is described by the following equation: MRT=(AUMC/AUC) where AUMC is the area under the first moment curve and TI is the length of infusion. Plasma clearance (CL), and the apparent volume of distribution at steady state (Vss) were calculated from the following equations: CL=Dose/AUC∞ Vss=MRT×CL
A Phase I, open label, single center study was conducted to evaluate the safety and tolerance of dexanabinol of high enantiomeric purity following a single intravenous administration to normal, healthy male volunteers (Brewster M. E. et al., International Journal Of Clinical Pharmacology and Therapeutics 35: 361-5, 1997). The trial was designed as a rising-dose tolerance study in healthy young male volunteers. In the study, seven groups of at least six subjects each (in the 100 mg dose n=9) received increasing doses (4, 8, 16, 32, 48, 100, 200 mg/volunteer) of dexanabinol. An additional group of 6 subjects received the vehicle alone. The lower doses, from 4 to 32 mg/volunteer, were included only in the safety segment of the study. Volunteers were followed-up up to 6 days after drug dosing for safety evaluation.
The pharmacokinetic segment of this study involved 27 healthy male subjects to assess the pharmacokinetic profile of 48, 100 and 200 mg i.v. doses of dexanabinol. Each dosing group, including vehicle control, consisted of 6 healthy male subjects, except for the 100 mg dosing group which contained nine subjects. On the pre-study day, volunteers were treated with 20 mg dexamethasone orally. On the study day, each group was premedicated with Chlorpheniramine maleate 10 mg (H1 blocker) and Cimetidine 300 mg (H2 blocker) intravenously, followed 30 minutes later by a single intravenous infusion of dexanabinol, administered using an Ivac peristaltic pump at a rate of 6 ml/min (approximately 15 min infusion/dose). Ten milliliters of blood were then removed (from the contralateral arm) at the end of the infusion, at 5, 10, 20, 30, 45 min, and at 1, 2, 3, 6, 12 and 24 hr post infusion. In some cases blood was also drawn 48 hr post end of infusion.
Mean pharmacokinetic parameters were estimated by non-compartmental methods up to 24 hr post-infusion for each dose group (mean±SE; n=6 or 9) using WinNonlin Professional version 3.2, (Pharsight Corp., Mountain view Calif.) and are presented in Table 8.

[3] = oral bioavailability, hard gelatin capsules, minipig model; type: in vivo; details: plasma, 40 mg/kg
Protocol: The percentage of oral bioavailability was calculated using the following equation: % F=[AUCoral/Doseoral]/[AUCIV/DoseIV] Non-human Pharmacokinetic Studies.
Dexanabinol of high enantiomeric purity (lot # AC9001HU) filled in hard gelatin capsules have shown good oral bioavailability. A pharmacokinetic study for oral bioavailability of dexanabinol in large animals using the minipig model (the best animal model for oral absorption of drugs) was carried out. The animals (n=3) after 8 hours of food deprivation were administered orally with hard gelatin capsules containing dexanabinol of high enantiomeric purity at a dose of 40 mg/kg. Dexanabinol plasma levels were determined using a validated GC-MS assay up to 48 hours following administration. […] Pharmacokinetic analysis was done using the non-compartmental model analysis (WinNonlin software). Linear trapezoidal rule was used to compute AUC and AUMC.

[4] = 48 mg single i.v. infusion, healthy volunteers, mean ± SE
[5] = 100 mg single i.v. infusion, healthy volunteers, mean ± SE
[6] = 200 mg single i.v. infusion, healthy volunteers, mean ± SE

CCCCCCC(C)(C)c1cc(O)c2c(c1)OC(C)(C)[C@H]1CC=C(CO)C[C@H]21 [dexanabinol, 1,1-dimethylheptyl-(3S,4S)-7-hydroxy-Δ^6-tetrahydrocannabinol]
AUC (ΔIOP×hours) ([1]; 0.02% topical): 6.4±2.5 mmHg×Hour | maximal ΔIOP ([1]; 0.02% topical): 1.8±0.7 mmHg | AUC (ΔIOP×hours) ([1]; 0.05% topical): 5.1±3.7 mmHg×Hour | maximal ΔIOP ([1]; 0.05% topical): 1.8±0.9 mmHg | maximal ΔIOP ([1]; 0.1% topical): 2.9±0.4 mmHg | AUC (ΔIOP×hours) ([1]; 0.1% topical, ±SEM): 14.6±2.2 mmHg×Hour | AUC (ΔIOP×hours) ([1]; 0.2% topical): 6.9±1.7 mmHg×Hour | maximal ΔIOP ([1]; 0.2% topical): 2.2±0.6 mmHg | IOP lowering effect compared to the vehicle and the saline ([1]; all doses 0.02%, 0.05%, 0.1%, 0.2%, masked study): small, yet statistically significant | IOP lowering effect over three days ([1]; daily application for three days, n=8): sustained IOP lowering effect | AUC∞/Dose [2, 4]: 72,469 ± 8,774 ng × min/ml | AUC∞/Dose [2, 5]: 59,374 ± 4,742 ng × min/ml | AUC∞/Dose [2, 6]: 48,162 ± 3,355 ng × min/ml | Plasma concentrations ([2]; after a 48 mg dose (0.62 mg/kg)): approximately 1.8 μg/ml | Plasma concentrations ([2]; at 100 mg (1.29 mg/kg)): ~2900 ng/mL | Plasma concentrations ([2]; at 200 mg (2.59 mg/kg)): ~4600 ng/mL | half-life ([2]; 48 mg, 48 mg single i.v. infusion, healthy volunteers, mean ± SE, read-out: t1/2 (converted)): 6.3 ± 0.7 h | half-life ([2]; 100 mg, 100 mg single i.v. infusion, healthy volunteers, mean ± SE, read-out: t1/2 (converted)): 6.1 ± 0.7 h | half-life ([2]; 200 mg, 200 mg single i.v. infusion, healthy volunteers, mean ± SE, read-out: t1/2 (converted)): 8.2 ± 0.7 h | half-life ([2]; single i.v. infusion 48, 100, 200 mg, read-out: distributional phase half-life): 0.0333 to 0.05 h | half-life ([2]; single i.v. infusion 48, 100, 200 mg, read-out: intermediate phase elimination half-life): 1 to 2 h | half-life ([2]; single i.v. infusion 48, 100, 200 mg, read-out: terminal elimination phase half-life): 8.5 to 9.5 h | MRT [2, 4]: 3.1 ± 0.2 h | clearance [2, 4]: 14.9 ± 1.9 mL/min/kg | AUC [2, 4]: 710 ng·h/mL | AUC(0-inf) [2, 4]: 725 ng·h/mL | Cmax [2, 4]: 1860 ng/mL | Vd [2, 4]: 2.8 ± 0.4 L/kg | MRT [2, 5]: 3.1 ± 0.3 h | clearance [2, 5]: 17.8 ± 1.5 mL/min/kg | AUC [2, 5]: 1200 ng·h/mL | AUC(0-inf) [2, 5]: 1220 ng·h/mL | Cmax [2, 5]: 2890 ng/mL | Vd [2, 5]: 3.4 ± 0.4 L/kg | MRT [2, 6]: 4 ± 0.6 h | clearance [2, 6]: 21.3 ± 1.6 mL/min/kg | AUC [2, 6]: 2240 ng·h/mL | AUC(0-inf) [2, 6]: 2320 ng·h/mL | Cmax [2, 6]: 4570 ng/mL | Vd [2, 6]: 5 ± 0.7 L/kg | acute doses found safe ([2]; single i.v.): ≤ 200 mg per subject | tolerability of drug administration ([2]; single i.v. 4 to 200 mg/volunteer): well tolerated | AUC ([3]; n=3): 4210 ng·h/mL | Cmax ([3]; n=3): 271 ± 102 ng/mL | MRT ([3]; n=3): 12.1 ± 1.15 h | half-life ([3]; n=3): 7.47 ± 1.06 h | bioavailability ([3]; oral, n=3, read-out: % F (oral bioavailability compared to i.v. injection)): ~12%

From US20070060636A1, “High enantiomeric purity dexanabinol for pharmaceutical compositions” (priority 2002, published 2007)
